In ChEMBL document CHEMBL1150943, “Three dolabellanes and a macrolide from the sponge Dysidea sp. from Palau” (J Nat Prod, 1998):

What was measured:
HCT-116 = assay: Cytotoxicity against human HCT116 cells after 72 hrs by MTS assay; type: functional, cell-based; conditions: HCT-116, 72 h
A2780 = assay: Cytotoxicity against human A2780 cells after 72 hrs by MTS assay; type: functional, cell-based; conditions: A2780, 72 h

Row | Compound | IC50 (HCT-116) | IC50 (A2780)
1 | C=C(CCCC(O)CC(C)O)C[C@H]1CC(=C)C[C@@H](O)C/C(C)=C/[C@H](O)CCCC(=O)O1 (stereo not given in full) [ARENOLIDE] | 21 µM | 9.8 µM
2 | CC(=O)O[C@H]1C/C(C)=C/C(=O)C[C@@H](C)/C=C/[C@@]2(C)CC[C@@H](C(C)(C)OC(C)=O)[C@H]12 (relative stereo) | 80 µM | 42 µM
3 | CC(=O)O[C@H]1/C=C(/C)CC(=O)C[C@@H](C)/C=C/[C@@]2(C)CC[C@@H](C(C)(C)OC(C)=O)[C@H]12 (relative stereo) | – | 25 µM
